Reference: patent US20130303485A1, “Compositions for Oral Administration of Zoledronic Acid or Related Compounds for Treating Disease” (priority 2012, published 2013)
Where two headings read alike, the source gives them in different places.

Legend:
physchem = experiment: physchem
Procedure: The aqueous solubility of zoledronic acid and disodium zoledronate tetrahydrate was determined. One gram of the test compound was measured in to a beaker. Demineralized water (pH 5.5) was then added in small increments to the test compound, and sonification was applied to the mixture. The procedure was continued until complete dissolution was achieved. Full dissolution was determined to have been reached when a clear solution was present with no visible material. The volume of water required to reach full dissolution was used to calculate a solubility value expressed in grams per 100 mL. The procedure was performed for each compound.

[1] = test system: rat tibia fracture model of complex regional pain syndrome (CRPS); experiment: Rat tibia fracture model of complex regional pain syndrome (CRPS): hindpaw pain, weight bearing, edema, warmth; format: in vivo; settings: oral 18 mg/m^2/day (3 mg/kg/day) for 28 days
Procedure: The effect of orally administered zoledronic acid was examined in the rat tibia fracture model of complex regional pain syndrome (CRPS). CRPS was induced in the rats by fracturing the right distal tibias of the animals and casting the fractured hindpaws for 4 weeks, as described in Guo T Z et al. (Pain. 2004; 108:95-107).
Animals were orally administered either vehicle (control) or zoledronic acid, in a dosage of 18 mg/m^2/day (3 mg/kg/day) for 28 days, starting on the day of fracture and casting. Drug was dissolved in distilled water and administered by gavage. Animals were fasted for 4 hours before and 2 hours after dosing. At the end of the 28-day period, casts were removed, and on the following day, the rats were tested for hindpaw pain, edema, and warmth.
Pain was assessed by measuring hyperalgesia, and weight bearing.
To measure hyperalgesia, an up-down von Frey testing paradigm was used. Rats were placed in a clear plastic cylinder (20 cm in diameter) with a wire mesh bottom and allowed to acclimate for 15 minutes. The paw was tested with one of a series of eight von Frey hairs ranging in stiffness from 0.41 g to 15.14 g. The von Frey hair was applied against the hindpaw plantar skin at approximately midsole, taking care to avoid the tori pads. The fiber was pushed until it slightly bowed and then it was jiggled in that position for 6 seconds. Stimuli were presented at an interval of several seconds. Hindpaw withdrawal from the fiber was considered a positive response. The initial fiber presentation was 2.1 g and the fibers were presented according to the up-down method of Dixon to generate six responses in the immediate vicinity of the 50% threshold. […].
An incapacitance device (IITC Inc. Life Science, Woodland, Calif., USA) was used to measure hindpaw weight bearing, a postural effect of pain. The rats were manually held in a vertical position over the apparatus with the hindpaws resting on separate metal scale plates and the entire weight of the rat was supported on the hindpaws. The duration of each measurement was 6 seconds and 10 consecutive measurements were taken at 60-second intervals. Eight readings (excluding the highest and lowest ones) were averaged to calculate the bilateral hindpaw weight-bearing values. Weight bearing data were analyzed as the ratio between right (fracture) and left hindpaw weight bearing values ((2R/(R+L))×100%).
A laser sensor technique was used to determine the dorsal-ventral thickness of the hindpaw. Before baseline testing the bilateral hindpaws were tattooed with a 2 to 3 mm spot on the dorsal skin over the midpoint of the third metatarsal. […]
The temperature of the hindpaw was measured using a fine wire thermocouple (Omega, Stanford, Conn., USA) applied to the paw skin. […]

[2] = test system: rat complete Freund's adjuvant (CFA) model of arthritis pain; experiment: Rat complete Freund's adjuvant (CFA) model of arthritis pain, paw compression threshold (Randall-Selitto); format: in vivo; settings: evaluated day 14 post CFA
Procedure: The effect of orally administered zoledronic acid on arthritis pain was examined in the rat complete Freund's adjuvant (CFA) model of arthritis pain. In this model, injection of 100% complete Freund's adjuvant (CFA) in a […] volume into the left hind paws is followed by a 10-14 day period to allow for the development of arthritis pain. Animals were orally administered vehicle (control), zoledronic acid 54 mg/m^2 (or 9 mg/kg), or zoledronic acid 360 mg/m^2 (or 60 mg/kg), divided in three equal daily doses on the first three days post CFA injection. Drug was dissolved in distilled water and prepared fresh daily. Animals were fasted prior to dosing.
Arthritis pain (mechanical hyperalgesia) in the vehicle and drug-treated animals was evaluated on day 14 post CFA injection using a digital Randall-Selitto device (dRS; IITC Life Sciences, Woodland Hills, Calif.). Animals were placed in a restraint sling that suspended the animal, leaving the hind limbs available for testing. Paw compression threshold was measured by applying increasing pressure to the plantar surface of the hind paw with a dome-shaped tip placed between the 3rd and 4th metatarsus. Pressure was applied gradually over approximately 10 seconds. […]
Reversal of arthritis pain in the ipsilateral (CFA-injected) paw was calculated according to the formula: […]

[3] = test system: rat complete Freund's adjuvant (CFA) model of inflammatory pain; format: in vivo, Sprague-Dawley rats; settings: for improvement in pain threshold from baseline: day three
Procedure: The effect of orally administered zoledronic acid on inflammatory pain was examined using the rat complete Freund's adjuvant (CFA) model. Inflammatory pain was induced by injection of 100% CFA in a 75 μL volume into the left hind paws of Sprague-Dawley rats on day 0, followed by assessments on days 1-3. Animals were orally administered vehicle (control), zoledronic acid 18 mg/m^2 (or 3 mg/kg), zoledronic acid 120 mg/m^2 (or 20 mg/kg), or zoledronic acid 900 mg/m^2 (or 150 mg/kg) daily on days 1-3. Drug was dissolved in distilled water and prepared fresh daily. Animals were fasted prior to dosing. Under current FDA guidelines for extrapolating starting dosages from animals to humans, dosages expressed in mg/m^2 are considered equivalent between mammalian species. Thus, for example, 18 mg/m^2 in a rat is considered equivalent to 18 mg/m^2 in a human being, while 3 mg/kg in a rat may not be equivalent to 3 mg/kg in a human being.
Values for inflammatory pain (mechanical hyperalgesia) in the vehicle and drug-treated animals were obtained on day 0 prior to CFA injection, and at baseline and post-treatment on days 1-3. Pain was assessed using a digital Randall-Selitto device (dRS; IITC Life Sciences, Woodland Hills, Calif.). Animals were placed in a restraint sling that suspended the animal, leaving the hind limbs available for testing. Paw compression threshold was measured by applying increasing pressure to the plantar surface of the hind paw with a dome-shaped tip placed between the 3rd and 4th metatarsus. Pressure was applied gradually over approximately 10 seconds. Measurements were taken from the first observed nocifensive behavior of vocalization, struggle or withdrawal. A cut-off value of 300 g was used to prevent injury to the animal.
Reversal of inflammatory pain was calculated according to the formula:
% reversal=(Post-treatment−Post-CFA baseline)/(Pre-CFA baseline−Post-CFA baseline)×100.
The experiment was carried out using 9-10 animals per group.

[4] = oral 18 mg/m^2 (3 mg/kg) daily on days 1-3
[5] = oral 900 mg/m^2 (150 mg/kg) daily on days 1-3

Row | Compound | aqueous solubility (physchem; pH 5.5) | reduction of hindpaw warmth versus vehicle [1] | reversal of fracture induced pain (von Frey threshold) as compared to vehicle [1] | hindlimb weight bearing, % of normal ([1]; fracture hindlimb) | reduction of hindpaw edema versus vehicle ([1]; hindpaw thickness) | reversal of arthritis pain ([2]; oral 54 mg/m^2 (9 mg/kg) in three equal daily doses) | reversal of arthritis pain ([2]; oral 360 mg/m^2 (60 mg/kg) in three equal daily doses) | solubility (physchem; pH 5.5, water, thermodynamic from solid) | reversal of inflammatory pain [3, 4] | improvement in pain threshold from baseline [3, 4] | paw compression thresholds versus vehicle ([3]; oral 18 mg/m^2, entire measurement period after 30 minutes from start of treatment) | paw compression thresholds versus vehicle ([3]; oral 120 mg/m^2 (20 mg/kg) daily, all time points during the assessment period) | reversal of inflammatory pain [3, 5] | improvement in pain threshold from baseline [3, 5] | toxicity ([3]; oral 900 mg/m^2 (150 mg/kg) daily on days 1-3, two days after cessation of dosing) | paw compression thresholds versus vehicle ([3]; two higher doses (120 and 900 mg/m^2), first two days of dosing)
1 | O.O.O.O.O=P([O-])(O)C(O)(Cn1ccnc1)P(=O)([O-])O.[Na+].[Na+] [disodium zoledronate tetrahydrate] | ≥ 12.5 g/100 mL |  |  |  |  |  |  |  |  |  |  |  |  |  |  | 
2 | O=P(O)(O)C(O)(Cn1ccnc1)P(=O)(O)O [zoledronic acid] |  | 5% | 77% | 86 % of normal | 60% | 33% | 54% | ≥ 2500 µg/mL | 29% | 49% | higher than for vehicle | approximately equal or inferior to vehicle | 48% | 83% | significant toxicity necessitating euthanization of all the animals in this group | lower than vehicle
